From the supplement of paper PMC11414989

Legend:
Settings in all cases: exposure window: 6 hpf to 120 hpf, static, assay age: 120 hpf (5 dpf)
[1] = system: Danio rerio larvae (Tropical 5D); test: mean distance moved of exposed larvae, dark phase (µm per frame (1/25 s)); higher = more movement
Protocol: (§1)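 Larval photomotor response in Tropical 5D wild-type zebrafish. Larvae were statically exposed to each chemical from 6 hpf to 5 dpf in 96-well plates; morphologically abnormal larvae were excluded. At 120 hpf, larvae were tracked with Ethovision XT (25 frames/s) over the 2nd cycle of 3 min light and 3 min dark. Values are the mean movement metric of exposed larvae per phase; same-plate control means (plate-dependent baseline) are given as conditions.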

[2] = system: Danio rerio larvae (Tropical 5D); test: mean distance moved of exposed larvae, light phase (µm per frame (1/25 s)); higher = more movement
Protocol: as §1

[3] = system: Danio rerio larvae (Tropical 5D); test: mean angular velocity of exposed larvae, dark phase (angular velocity (unit not stated)); higher = more movement
Protocol: as §1

[4] = system: Danio rerio larvae (Tropical 5D); test: mean angular velocity of exposed larvae, light phase (angular velocity (unit not stated)); higher = more movement
Protocol: as §1

c1ccc2c(c1)c1cccc3c4ccccc4c4cccc2c4c13 [Dibenzo[e-l]pyrene]
Settings | mean angular velocity of exposed larvae, [3] | mean angular velocity of exposed larvae, [4] | mean distance moved of exposed larvae, [1] | mean distance moved of exposed larvae, [2]
0.01 µM | 0.665 | 0.217 | 23.6 | 7.75
0.025 µM | 0.598 | 0.129 | 22.4 | 6.96
0.065 µM | 0.644 | 0.194 | 24.7 | 6.48
0.164 µM | 0.681 | 0.187 | 22.8 | 8.06
0.35 µM | 0.693 | 0.147 | 25.3 | 7.37
0.75 µM | 0.704 | 0.138 | 26.3 | 6.8
1 µM | 0.415 | 0.119 | 13.5 | 4.47
2.54 µM | 0.428 | 0.113 | 10.8 | 2.56
6.45 µM | 0.349 | 0.0734 | 9.33 | 1.7
16.4 µM | 0.245 | 0.0678 | 8.16 | 1.99
35 µM | 0.503 | 0.0716 | 12 | 1.66
74.8 µM | 0.384 | 0.0555 | 9.85 | 1.63
100 µM | 0.353 | 0.0996 | 9.64 | 3.03

CCN(CC(=O)O)S(=O)(=O)C(F)(F)C(F)(F)C(F)(F)C(F)(F)C(F)(F)C(F)(F)C(F)(F)C(F)(F)F [N-ethylperfluoro-1-octanesulfonamidoacetic acid]
0.25 µM
Settings | mean angular velocity of exposed larvae | mean distance moved of exposed larvae
[1] | – | 8.83
[2] | – | 1.44
[3] | 0.335 | –
[4] | 0.0592 | –
